In ChEMBL document CHEMBL6177949, “Exploiting Solvent Exposed Salt-Bridge Interactions for the Discovery of Potent Inhibitors of SOS1 Using Free-Energy Perturbation Simulations” (ACS Med Chem Lett, 2025):
In brackets after ≈: the same amount, converted by molar mass.

What was measured:
[1] = Dissociation constant, pKa of compound at 33 uM by UV-vis spectroscopy; format: physicochemical
[2] = Lipophilicity, log D of the compound in octanol/phosphate buffer at pH 7.4 measured after 2 hrs by LC-MS/MS based shake flask method; format: physicochemical
[3] = Intrinsic clearance in human liver microsomes at 1 uM measured after 0.5 to 30 mins in presence of NADPH by LC-MS/MS analysis; format: ADME, Microsome; conditions: time 0.5-30 min, read-out: CLH
[4] = Intrinsic clearance in mouse liver microsomes at 1 uM measured after 0.5 to 30 mins in presence of NADPH by LC-MS/MS analysis; format: ADME, Microsome; conditions: time 0.5-30 min, read-out: CLH
[5] = Apparent permeability across apical to basolateral side in MDCKII-MDR1 cells at 10 uM measured after 60 mins by LC-MS/MS analysis; format: ADME, cell-based, Canis lupus familiaris; conditions: dog, MDCK-MDR1
NCI-H358 = assay: cells; conditions: Homo sapiens
Description: Antiproliferative activity against human NCI-H358 cells assessed as reduction in cell viability incubated for 10 days with media refreshed for every 5 days by celltiter-glo assay

[6] = Half life in BALB/c mouse at 1 mg/kg, iv administered as bolus dose by LC-MS/MS analysis; format: ADME, organism-based; conditions: in vivo
[7] = molecular target: Voltage-gated inwardly rectifying potassium channel KCNH2 (Homo sapiens, UniProt Q12809); assay: Inhibition of human ERG stably transfected in HEK293 cells by manual patch-clamp assay; format: toxicity, cell-based
Voltage-gated inwardly rectifying potassium channel KCNH2, sequence (Q12809 whole entry): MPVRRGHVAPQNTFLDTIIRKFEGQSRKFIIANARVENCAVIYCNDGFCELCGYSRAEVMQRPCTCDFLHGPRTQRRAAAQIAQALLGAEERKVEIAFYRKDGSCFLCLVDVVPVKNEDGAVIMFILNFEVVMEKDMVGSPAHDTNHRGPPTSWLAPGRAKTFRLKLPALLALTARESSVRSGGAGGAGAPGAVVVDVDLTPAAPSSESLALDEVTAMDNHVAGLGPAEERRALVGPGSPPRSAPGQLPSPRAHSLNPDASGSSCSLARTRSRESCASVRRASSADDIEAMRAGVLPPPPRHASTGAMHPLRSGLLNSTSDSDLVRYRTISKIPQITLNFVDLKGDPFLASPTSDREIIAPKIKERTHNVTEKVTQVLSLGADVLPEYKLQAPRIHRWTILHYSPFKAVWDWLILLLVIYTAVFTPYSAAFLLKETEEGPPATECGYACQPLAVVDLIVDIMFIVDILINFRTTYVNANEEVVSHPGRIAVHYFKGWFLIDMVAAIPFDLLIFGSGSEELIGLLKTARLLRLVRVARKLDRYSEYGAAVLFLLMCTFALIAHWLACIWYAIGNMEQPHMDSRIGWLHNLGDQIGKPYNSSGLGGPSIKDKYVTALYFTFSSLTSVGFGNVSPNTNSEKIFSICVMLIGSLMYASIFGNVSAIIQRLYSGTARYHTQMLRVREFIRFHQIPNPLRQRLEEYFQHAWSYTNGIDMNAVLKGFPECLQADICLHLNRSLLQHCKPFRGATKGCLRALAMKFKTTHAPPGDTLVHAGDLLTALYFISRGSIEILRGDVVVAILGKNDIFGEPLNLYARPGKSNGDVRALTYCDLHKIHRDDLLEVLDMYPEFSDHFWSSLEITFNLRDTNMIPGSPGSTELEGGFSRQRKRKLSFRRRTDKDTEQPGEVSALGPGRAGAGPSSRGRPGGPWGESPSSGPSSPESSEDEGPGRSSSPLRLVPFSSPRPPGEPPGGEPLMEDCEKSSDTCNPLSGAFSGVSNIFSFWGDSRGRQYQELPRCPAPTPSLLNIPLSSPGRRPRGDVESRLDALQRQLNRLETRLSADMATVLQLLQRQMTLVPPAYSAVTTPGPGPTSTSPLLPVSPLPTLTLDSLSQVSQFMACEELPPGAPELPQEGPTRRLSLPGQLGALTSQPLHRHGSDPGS

[8] = Oral bioavailability in BALB/c mouse at 5 mg/kg administered via gavage by LC-MS/MS analysis; format: ADME, organism-based; conditions: in vivo
[9] = Unbound clearance in BALB/c mouse at 5 mg/kg, po via gavage or 1 mg/kg, iv administered as bolus dose by LC-MS/MS analysis; format: ADME, organism-based; conditions: in vivo
[10] = Volume of distribution at steady state in BALB/c mouse at 1 mg/kg, iv administered as bolus dose by LC-MS/MS analysis; format: ADME, organism-based; conditions: in vivo, read-out: Vdss
[11] = Kinetic solubility of the compound in pH 7.4 phosphate buffered saline at 300 uM measured after 2 hrs by LC-MS/MS analysis; format: physicochemical; conditions: read-out: Kinetic_solubility
[12] = molecular target: Son of sevenless homolog 1 (Homo sapiens, UniProt Q07889, G12C); assay: Binding affinity to recombinant human His10-tagged SOS1 (564 to 1049 residues) assessed as inhibition of GST-tagged human KRAS G12C mutant (1 to 169 residues) interaction with SOS1 preincubated for 15 mins followed by KRAS addition and measured after 2 hrs by FRET assay
Son of sevenless homolog 1, sequence (Q07889 whole entry, looked up, stated change not applied, the tested form may be a part): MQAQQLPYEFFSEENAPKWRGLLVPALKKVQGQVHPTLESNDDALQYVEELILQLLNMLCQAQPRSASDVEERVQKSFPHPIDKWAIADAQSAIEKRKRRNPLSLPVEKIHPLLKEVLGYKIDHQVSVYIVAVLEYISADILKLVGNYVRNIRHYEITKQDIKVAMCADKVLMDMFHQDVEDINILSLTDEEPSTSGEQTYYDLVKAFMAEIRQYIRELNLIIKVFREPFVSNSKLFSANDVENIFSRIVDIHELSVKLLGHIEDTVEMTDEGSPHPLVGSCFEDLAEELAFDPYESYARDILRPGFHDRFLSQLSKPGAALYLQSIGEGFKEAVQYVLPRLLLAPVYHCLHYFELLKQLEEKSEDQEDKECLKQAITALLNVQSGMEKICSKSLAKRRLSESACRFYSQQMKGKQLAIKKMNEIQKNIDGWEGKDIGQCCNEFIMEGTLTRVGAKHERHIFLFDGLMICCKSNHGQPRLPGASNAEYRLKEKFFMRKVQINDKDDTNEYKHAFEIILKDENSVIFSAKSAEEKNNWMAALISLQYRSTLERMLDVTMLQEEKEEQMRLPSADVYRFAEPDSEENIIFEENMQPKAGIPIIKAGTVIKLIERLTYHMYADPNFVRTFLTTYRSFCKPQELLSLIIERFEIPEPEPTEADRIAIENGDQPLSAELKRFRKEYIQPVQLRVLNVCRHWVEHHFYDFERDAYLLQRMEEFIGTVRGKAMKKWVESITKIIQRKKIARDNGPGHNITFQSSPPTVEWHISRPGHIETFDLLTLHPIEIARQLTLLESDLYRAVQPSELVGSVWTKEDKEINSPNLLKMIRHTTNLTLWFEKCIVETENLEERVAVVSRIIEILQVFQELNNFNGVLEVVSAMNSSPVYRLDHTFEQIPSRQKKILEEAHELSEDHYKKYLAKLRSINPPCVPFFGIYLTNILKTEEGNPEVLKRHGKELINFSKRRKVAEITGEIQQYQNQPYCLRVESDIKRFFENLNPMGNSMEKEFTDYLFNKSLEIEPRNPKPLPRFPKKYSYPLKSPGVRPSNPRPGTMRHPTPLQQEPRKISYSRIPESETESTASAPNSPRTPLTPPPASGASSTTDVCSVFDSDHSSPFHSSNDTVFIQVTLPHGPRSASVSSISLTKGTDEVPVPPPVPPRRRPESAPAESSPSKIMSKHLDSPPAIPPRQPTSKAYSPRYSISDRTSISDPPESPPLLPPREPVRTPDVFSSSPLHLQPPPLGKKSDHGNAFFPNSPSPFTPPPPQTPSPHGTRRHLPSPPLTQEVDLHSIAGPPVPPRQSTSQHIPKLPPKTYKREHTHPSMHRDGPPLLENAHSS

Row | SMILES | pKa at 33 µM [1] | logD at 2 h [2] | CLint scaled at 1 µM [3] | CLint scaled at 1 µM [4] | Papp A→B at 1 h, 10 µM [5] | IC50 (NCI-H358) | further results
1 | C[C@@H](Nc1nc2c(c3cc(=O)n(C4CCOCC4)cc13)CC(N1CCC1)CC2)c1cccc(C(F)F)c1F (some centres undefined) | 9.3 | – | – | – | – | – | –
2 | Cc1c([C@@H](C)Nc2nc3c(c4cc(=O)n(C5CCOCC5)cc24)CNCC3)cccc1C(F)(F)F | 8.8 | 2.9 | 0.66 L/h/kg | 2.76 L/h/kg | 2 nm/s | – | –
3 | COc1cc2nc(C)nc(N[C@H](C)c3cc(N)cc(C(F)(F)F)c3)c2cc1O[C@H]1CCOC1 | – | – | – | – | – | 0.032 µM | –
4 | C[C@@H](Nc1nc2c(c3cc(=O)n(C4CC4)cc13)CC(N1CC[C@@H](F)C1)CC2)c1cccc(C(F)F)c1F (some centres undefined) | – | 3.7 | 3.36 L/h/kg | 8.58 L/h/kg | 2 nm/s | 0.032 µM | half-life [6]: 4 h; IC50 [7]: 1.1 µM; bioavailability [8]: 2%; CL free [9]: 49 L/h/kg; Vd [10]: 4.6 L/kg; solubility kinetic at 2 h, 300 µM [11]: 90 µM (≈ 46.3 µg/mL)
5 | Oc1cc(-c2ncc3c(N4C[C@H]5CC[C@@H](C4)N5)nc(OCC45CCCN4CCC5)nc3c2F)c2ccccc2c1 | – | – | – | – | – | – | IC50 [12]: < 0.002 µM
6 | COC1CN(C2CCc3nc(N[C@H](C)c4cccc(C(F)F)c4F)c4cn(C5CCOCC5)c(=O)cc4c3C2)C1 (some centres undefined) | 7.8 | – | – | – | – | – | –
7 | C[C@@H](Nc1nc2c(c3cc(=O)n(C4CCOCC4)cc13)CC(N1CC(F)(F)C1)CC2)c1cccc(C(F)F)c1F (some centres undefined) | 6.1 | – | – | – | – | – | –
8 | Cc1c([C@@H](C)Nc2nc3c(c(=O)n2C)CNCC3)cccc1C(F)(F)F | – | – | – | – | 32 nm/s | – | –
9 | C[C@@H](Nc1nc2c(c3cc(=O)n(C4CC4)cc13)CC(N1CCC1)CC2)c1cccc(C(F)F)c1F (some centres undefined) | – | 2.6 | 0.54 L/h/kg | 2.94 L/h/kg | 3 nm/s | 0.019 µM | half-life [6]: 1.1 h; IC50 [7]: 1.1 µM; bioavailability [8]: 2%; CL free [9]: 21.2 L/h/kg; Vd [10]: 4.1 L/kg; solubility kinetic at 2 h, 300 µM [11]: 226 µM (≈ 109 µg/mL)
10 | Cc1c(C#N)cccc1[C@@H](C)Nc1nnc(C)c2cnc(N3CCOCC3)cc12 [MRTX-0902] | – | – | – | – | – | 0.022 µM | –
